From patent publication US5912405A, “Enhancers such as acetosyringone” (Novo Nordisk A/S, priority 1994, dated 1999)

Columns and labels:
Type in all cases: biochemical
[1] = molecular target: T1, Coprinus cinereus peroxidase (CiP) (Coprinopsis cinerea, UniProt P28314); test: Initial bleaching of Direct Blue 1 with Coprinus cinereus peroxidase and enhancers; conditions: 5 μM enhancer, 20 μM H2O2, 30° C.
T1 construct: made in house
T1 sequence (P28314 21-363): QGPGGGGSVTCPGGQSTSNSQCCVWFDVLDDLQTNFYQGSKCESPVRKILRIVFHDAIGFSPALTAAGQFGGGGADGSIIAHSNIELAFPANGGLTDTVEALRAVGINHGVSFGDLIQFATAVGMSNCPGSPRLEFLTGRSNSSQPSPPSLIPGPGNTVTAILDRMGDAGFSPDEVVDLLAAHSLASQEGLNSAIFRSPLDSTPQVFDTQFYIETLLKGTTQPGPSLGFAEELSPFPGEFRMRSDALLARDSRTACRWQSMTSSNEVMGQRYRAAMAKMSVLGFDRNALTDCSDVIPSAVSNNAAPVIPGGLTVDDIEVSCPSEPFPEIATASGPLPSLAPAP
Method: A Coprinus cinereus peroxidase (CiP), obtained as described in WO 9412621 was used.
Dilutions of CiP were made in a solution of 0.15 gram/l of Triton X-405.
(§1) The bleaching rate of Direct Blue 1 (DB1) by purified CiP was determined using the following conditions: […]
(§2) Reagents were mixed in a thermostated cuvette at 30° C. and the bleaching was started by addition of hydrogen peroxide. The bleaching was detected spectrophotometrically at 610 nm, which is the wavelength of the absorption peak of DB1. Bleaching was followed for 1 minute, and the initial reduction in absorbance, --ΔmAbs/minute, was determined.

[2] = molecular target: T2, Coprinus cinereus laccase (Coprinopsis cinerea, UniProt Q9Y780); test: Bleaching of Direct Blue 1 using Coprinus cinereus laccase with/without enhancing agents at pH 5.5-8.5; conditions: C. cinereus laccase 1 mg/l, 10 μM enhancing agent, 30° C.
T2 sequence (Q9Y780 19-539): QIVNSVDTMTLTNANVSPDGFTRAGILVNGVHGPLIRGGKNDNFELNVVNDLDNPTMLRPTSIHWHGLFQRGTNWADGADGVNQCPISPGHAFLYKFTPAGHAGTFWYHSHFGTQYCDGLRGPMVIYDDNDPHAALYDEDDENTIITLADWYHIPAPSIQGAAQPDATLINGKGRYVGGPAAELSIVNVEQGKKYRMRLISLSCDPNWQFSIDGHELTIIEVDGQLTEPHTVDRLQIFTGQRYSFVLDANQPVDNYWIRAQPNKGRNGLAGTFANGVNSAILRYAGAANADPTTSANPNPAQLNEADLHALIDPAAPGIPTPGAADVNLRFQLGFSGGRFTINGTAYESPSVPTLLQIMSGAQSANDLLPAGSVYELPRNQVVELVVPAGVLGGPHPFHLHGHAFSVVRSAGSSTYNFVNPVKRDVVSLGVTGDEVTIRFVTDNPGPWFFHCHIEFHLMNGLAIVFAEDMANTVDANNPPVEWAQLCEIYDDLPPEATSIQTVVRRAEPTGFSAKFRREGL
Method: Bleaching of the dye Direct Blue 1 at various pH values was conducted using Coprinus cinereus laccase and one of the following enhancing agents:
The laccase was obtained in the following way: Coprinus cinereus (IFO 30116--freely available to the public from Institute of Fermentation, Osaka (IFO) under the indicated deposit number) was inoculated from a PDA agar slant (PDA: 39 g/l potato dextrose agar) into a 100 ml shake flask containing medium A (Medium A is described in Example 3). The culture was cultivated for 6 days at 26° C. and 100 rpm. A 10-liter fermentor containing medium A was inoculated with the 100 ml culture broth. The fermentation ran for 6 days at 26° C. and 100 rpm. The culture broth was filtrated and concentrated by ultrafiltration. Further purification was carried out using hydrophobic interaction chromatography followed by anionic exchange chromatography. This process resultated in a preparation with a laccase activity of 3.6 LACU/ml. The estimated purity was >80% on a protein basis.
The bleaching rate of DB1 was determined using the owing conditions: […]
(§3) Reagents were mixed in a 1 ml thermostated cuvette at 30° C. and the bleaching was started by addition of the laccase.
The bleaching was followed spectrophotometrically at 610 nm, which is the wavelength of the absorption peak of DB1 with readings every 5 sec. for a period of 5 minutes. The initial bleaching rate was determined from the first linear part of the absorbance curve.

Trametes villosa laccase = molecular target: T3, Trametes villosa laccase (Trametes villosa, UniProt Q99044); test: Bleaching of Direct Blue 1 with Trametes villosa laccase with and without enhancing agents; conditions: 10 μM enhancer, 30° C.
T3 construct: made in house; host or cells: Trametes villosa CBS 678.70 (native producer), purified from culture broth
T3 sequence (Q99044 22-520): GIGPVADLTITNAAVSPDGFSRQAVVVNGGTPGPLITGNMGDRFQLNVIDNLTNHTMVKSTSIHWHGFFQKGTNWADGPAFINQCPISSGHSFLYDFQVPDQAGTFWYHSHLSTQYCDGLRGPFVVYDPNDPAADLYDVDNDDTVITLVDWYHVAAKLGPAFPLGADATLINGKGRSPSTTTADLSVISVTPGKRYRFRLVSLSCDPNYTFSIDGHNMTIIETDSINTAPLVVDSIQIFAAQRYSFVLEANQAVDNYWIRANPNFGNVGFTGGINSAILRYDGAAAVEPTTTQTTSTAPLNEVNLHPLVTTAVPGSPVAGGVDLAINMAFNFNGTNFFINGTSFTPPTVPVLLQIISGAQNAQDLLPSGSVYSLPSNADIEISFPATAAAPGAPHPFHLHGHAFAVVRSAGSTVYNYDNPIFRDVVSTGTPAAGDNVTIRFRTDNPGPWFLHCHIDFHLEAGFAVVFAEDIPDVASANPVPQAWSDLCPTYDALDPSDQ
Method: Laccase obtained from Trametes villosa: 800 ml culture broth of Trametes villosa, CBS 678.70, was filtered with filter aid to give a clear filtrate, which was concentrated and washed by ultrafiltration on a membrane with a cut-off of 6-8 kDa. One ml samples of concentrated preparation was applied onto a Q-Sepharose HP column (Pharmacia, Sweden) equilibrated with 0.1 M fosfate pH 7, and the laccase was eluted with a flat NaCl gradient around 0.25 M. Fractions with laccase activity from 10 runs were pooled and concentrated by ultrafiltration to an activity of 500 LACU/ml.
The following conditions were used: […]
Reagents were mixed in a 1 cm thermostated cuvette at 30° C. and the bleaching was started by addition of enzyme.
The bleaching was detected spectrophotometrically at 610 nm, which is the absorption peak of DB1. After 5 sec. bleaching was followed for 4 minutes.
Bleaching of Direct Blue 1 with Trametes villosa laccase, obtained as described above, at pH 5.5 (1.6 mg/l) and pH 7.0 (16 mg/l): […]

[3] = molecular target: T2, Coprinus cinereus laccase; test: Bleaching of gradually added Acid Blue 45 with Coprinus cinereus laccase with and without enhancing agent; conditions: phosphate/borate buffer pH 10; 35° C.; laccase 10 mg/l; acetosyringone 10 μM
Method: To simulate such a process, however, a magnetically stirred beaker was used as the reaction vessel and dye was added gradually from a stock solution (using a Metrohm 725 dosimat). The solution was monitored spectrophotometrically using a Zeiss multichannel spectrometer (MCS) equipped with a fibre-optics immersion probe.
Stock solutions of acetosyringone was prepared in a suitable water/ethanol mixture. Stock solutions of the anthraquinone dye Acid Blue 45 were made with water.
The laccase was recovered from a 10-liter fermentation of Coprinus cinereus (IFO 30116) as described in Example 4.
The following conditions were used in the experiment:
Medium and pH: […]/50 mM phosphate/borate buffer at pH 10
Acetosyringone (when applicable): 10 μM
Dye addition program: linear addition at a rate of ca 0.34 bs/40 min, referring to the absorbance of Acid Blue 45 at its maximum absorbance wavelength (590 nm for Acid Blue 45).
The following symbols are used: (I): Only dye addition; (II): Dye addition in the presence of Laccase; (III): Dye addition in the presence of Laccase+acetosyringone.

[4] = molecular target: T1, Coprinus cinereus peroxidase (CiP); test: Initial bleaching of Chicago Sky Blue 6B (CSB) with Coprinus cinereus peroxidase and enhancers; conditions: 5 μM enhancer, 20 μM H2O2, 30° C.
Method: as §1, §2
Bleaching tests were performed in exactly the same way as described in Example 2 except that instead of using DB1 Chigaco Sky Blue (CSB) (obtainable from Aldrich) was used, and the following enhancers were tested: […]

[5] = tested on: laccase obtained from Coprinus comatus; test: Bleaching of Direct Blue 1 using Coprinus comatus laccase and methylsyringate; conditions: 10 μM methylsyringate, 30° C.
Method: (§4) Bleaching of the dye Direct Blue 1 at various pH values was conducted using a laccase obtained from Coprinus comatus, Coprinus friesii, Coprinus plicatilis, Panaeolus papilionaceus or Psathyrella condolleana and methylsyringate.
(§5) After fermentation the culture broths were centrifugated and the supernatants were used in the tests described below.
(§6) The bleaching rate of DB1 was determined using the following conditions: […]
as §3
(§7) The bleaching was followed spectrophotometrically at 610 nm, which is the wavelength of the absorption peak of DB1, with readings every 5 sec. for a period of 5 minutes. The initial bleaching rate was determined from the first linear part of the absorbance curve.

[6] = tested on: laccase obtained from Coprinus friesii; test: Bleaching of Direct Blue 1 using Coprinus friesii laccase and methylsyringate; conditions: 10 μM methylsyringate, 30° C.
Method: as §4, §5, §6, §3, §7

[7] = tested on: laccase obtained from Panaeolus papilionaceus; test: Bleaching of Direct Blue 1 using Panaeolus papilionaceus laccase and methylsyringate; conditions: 10 μM methylsyringate, 30° C.
Method: as §4, §5, §6, §3, §7

[8] = tested on: laccase obtained from Psathyrella condolleana; test: Bleaching of Direct Blue 1 using Psathyrella condolleana laccase and methylsyringate; conditions: 10 μM methylsyringate, 30° C.
Method: as §4, §5, §6, §3, §7

[9] = tested on: laccase obtained from Coprinus plicatilis; test: Bleaching of Direct Blue 1 using Coprinus plicatilis laccase and methylsyringate; conditions: 10 μM methylsyringate, 30° C.
Method: as §4, §5, §6, §3, §7

[10] = pH 5.5, Trametes villosa laccase 1.6 mg/l
[11] = pH 7.0, Trametes villosa laccase 16 mg/l

Row | SMILES | Initial Bleaching of Direct Blue 1 with CiP ([1]; pH 8.5, 0.08 mg/l CiP) | Initial Bleaching of Direct Blue 1 with CiP ([1]; pH 10.5, 0.16 mg/l CiP) | Initial bleaching rate of DB1 ([2]; pH 5.5) | Initial bleaching rate of DB1 ([2]; pH 7.0) | Initial bleaching rate of DB1 ([2]; pH 8.5) | DB1 bleaching in 4 minutes (Trametes villosa laccase; [10]) | DB1 bleaching in 4 minutes (Trametes villosa laccase; [11]) | other results
1 | COc1cc(C(C)=O)cc(OC)c1O [acetosyringone] | 239 -ΔmAbs/minute | 1 -ΔmAbs/minute | 28 -ΔmAbs/minute | 94 -ΔmAbs/minute | 50 -ΔmAbs/minute | 447 -ΔmAbs/4 min | 242 -ΔmAbs/4 min | Bleaching effect on gradually added Acid Blue 45 (FIG. 1) [3]: enhanced
2 | COC(=O)c1cc(OC)c(O)c(OC)c1 [methylsyringate] | 245 -ΔmAbs/minute | 8 -ΔmAbs/minute | 20 -ΔmAbs/minute | 94 -ΔmAbs/minute | 57 -ΔmAbs/minute |  |  | Initial Bleaching of CSB with CiP ([4]; pH 8.5, 0.08 mg/l CiP): 211 -ΔmAbs/minute; Initial Bleaching of CSB with CiP ([4]; pH 10.5, 0.16 mg/l CiP): 42 -ΔmAbs/minute; Initial bleaching rate of DB1 ([5]; C. comatus laccase 4 LACU/l, pH 5.5): 33 -ΔmAbs/minute; Initial bleaching rate of DB1 ([5]; C. comatus laccase 4 LACU/l, pH 7.0): 23 -ΔmAbs/minute; Initial bleaching rate of DB1 ([5]; C. comatus laccase 20 LACU/l, pH 8.5): 2 -ΔmAbs/minute; Initial bleaching rate of DB1 ([6]; C. friesii laccase 4 LACU/l, pH 5.5): 40 -ΔmAbs/minute; Initial bleaching rate of DB1 ([6]; C. friesii laccase 4 LACU/l, pH 7.0): 55 -ΔmAbs/minute; Initial bleaching rate of DB1 ([6]; C. friesii laccase 20 LACU/l, pH 8.5): 61 -ΔmAbs/minute; Initial bleaching rate of DB1 ([7]; Pan. papilionaceus laccase 4 LACU/l, pH 5.5): 16 -ΔmAbs/minute; Initial bleaching rate of DB1 ([7]; Pan. papilionaceus laccase 4 LACU/l, pH 7.0): 19 -ΔmAbs/minute; Initial bleaching rate of DB1 ([7]; Pan. papilionaceus laccase 20 LACU/l, pH 8.5): 18 -ΔmAbs/minute; Initial bleaching rate of DB1 ([8]; Ps. condolleana laccase 4 LACU/l, pH 5.5): 45 -ΔmAbs/minute; Initial bleaching rate of DB1 ([8]; Ps. condolleana laccase 4 LACU/l, pH 7.0): 54 -ΔmAbs/minute; Initial bleaching rate of DB1 ([8]; Ps. condolleana laccase 20 LACU/l, pH 8.5): 43 -ΔmAbs/minute; Initial bleaching rate of DB1 ([9]; C. plicalitis laccase 4 LACU/l, pH 5.5): 42 -ΔmAbs/minute; Initial bleaching rate of DB1 ([9]; C. plicalitis laccase 4 LACU/l, pH 7.0): 39 -ΔmAbs/minute; Initial bleaching rate of DB1 ([9]; C. plicalitis laccase 20 LACU/l, pH 8.5): 14 -ΔmAbs/minute
3 | COc1cc(C=O)cc(OC)c1O [syringaldehyde] | 151 -ΔmAbs/minute | 4 -ΔmAbs/minute | 29 -ΔmAbs/minute | 79 -ΔmAbs/minute | 28 -ΔmAbs/minute | 438 -ΔmAbs/4 min | 112 -ΔmAbs/4 min | 
